The target of the experiment is T1, large-conductance calcium-activated potassium (BK) channel (Rattus norvegicus, UniProt Q62976).
T1 construct: gene Kcnma1; native BK channels in freshly isolated rat coronary arterial smooth muscle cells (inside-out patches)
The experiment in a line: inside-out single-channel patch clamp (open probability at +[…] mV). In kind it is cell-based.

T1 sequence (Q62976 whole entry): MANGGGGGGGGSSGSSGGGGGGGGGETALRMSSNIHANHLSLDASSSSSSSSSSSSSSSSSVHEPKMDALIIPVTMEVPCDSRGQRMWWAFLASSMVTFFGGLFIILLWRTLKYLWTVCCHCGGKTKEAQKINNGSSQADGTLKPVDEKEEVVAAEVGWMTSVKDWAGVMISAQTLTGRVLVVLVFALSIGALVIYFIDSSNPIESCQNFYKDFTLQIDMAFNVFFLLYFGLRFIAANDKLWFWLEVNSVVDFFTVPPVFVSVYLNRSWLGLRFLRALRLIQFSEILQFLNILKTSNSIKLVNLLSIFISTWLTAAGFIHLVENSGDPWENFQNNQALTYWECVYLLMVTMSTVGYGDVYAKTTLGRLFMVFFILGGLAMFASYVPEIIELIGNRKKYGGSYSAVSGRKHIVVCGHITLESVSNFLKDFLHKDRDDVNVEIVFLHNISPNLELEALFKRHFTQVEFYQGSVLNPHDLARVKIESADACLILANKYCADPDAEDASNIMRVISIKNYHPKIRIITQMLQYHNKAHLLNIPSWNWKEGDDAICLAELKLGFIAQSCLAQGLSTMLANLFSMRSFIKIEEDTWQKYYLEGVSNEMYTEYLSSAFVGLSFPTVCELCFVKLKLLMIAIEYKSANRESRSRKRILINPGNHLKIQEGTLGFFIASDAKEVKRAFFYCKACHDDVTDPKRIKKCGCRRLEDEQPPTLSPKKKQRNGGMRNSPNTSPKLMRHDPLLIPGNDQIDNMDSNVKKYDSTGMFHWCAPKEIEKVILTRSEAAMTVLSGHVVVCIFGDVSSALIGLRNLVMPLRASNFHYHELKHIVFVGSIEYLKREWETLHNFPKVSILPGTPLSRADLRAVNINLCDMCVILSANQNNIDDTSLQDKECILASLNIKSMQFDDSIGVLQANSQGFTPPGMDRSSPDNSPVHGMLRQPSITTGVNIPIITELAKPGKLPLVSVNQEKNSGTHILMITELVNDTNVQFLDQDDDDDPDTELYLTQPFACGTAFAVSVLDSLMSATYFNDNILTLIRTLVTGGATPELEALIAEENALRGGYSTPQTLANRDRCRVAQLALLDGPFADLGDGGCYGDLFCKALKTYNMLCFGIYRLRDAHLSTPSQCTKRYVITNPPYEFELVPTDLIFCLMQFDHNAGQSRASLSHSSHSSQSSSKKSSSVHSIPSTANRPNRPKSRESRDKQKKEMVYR

The term EC50 denotes the concentration giving half of the maximal effect. Regarding `CC/C=C\C/C=C\C/C=C\C/C=C\C/C=C\C/C=C\CCC(=O)O` [Docosahexaenoic acid], the EC50 came to 3.37 ± 0.1 µM.
